These results are taken from patent US20260216164A1, “INDOLE COMPOUND DECOMPOSING IKZF2, AND USE THEREOF” (KOREA RESEARCH INSTITUTE OF CHEMICAL TECHNOLOGY, priority 2023, published 2026).

The target of the test is Helios (IKZF2) (Homo sapiens, UniProt Q96SW2+Q9UKS7). Kind of test: Screening of Helios protein degraders using Nano-Glo HiBiT cell line (HiBiT-IKZF2). Type of test: cell-based. The settings on record: 6 hours, HiBiT-Helios knock-in Jurkat cells; for remaining activity at 1 µM: compound 1 μM, read-out: HiBiT-IKZF2 Residual amount of Helios (%) 1 μM; for remaining activity at 10 µM: compound 10 μM, read-out: HiBiT-IKZF2 Residual amount of Helios (%) 10 μM. The protocol:
To observe intracellular degradation of Helios, the Nano-Glo HiBiT detection system (Promega) was employed. […] The cells expressing Helios fused with HiBiT were validated using the Nano-Glo HiBiT detection system (Promega) according to a predetermined protocol, isolated as single cells, and cultured in complete medium to establish a monoclonal cell line.
After 6 hours, the Nano-Glo HiBiT detection reagent was added to each well in an equal volume to the cell culture medium and incubated at room temperature for 10 minutes. Following incubation, the HiBiT luminescence signal was measured using a microplate reader (Perkin Elmer).
In general terms: HiBiT is a short tag that completes a luciferase, so light tracks the accessible tagged protein.

Sequence of Helios (IKZF2) (Q9UKS7 whole entry, the tested form may be a part): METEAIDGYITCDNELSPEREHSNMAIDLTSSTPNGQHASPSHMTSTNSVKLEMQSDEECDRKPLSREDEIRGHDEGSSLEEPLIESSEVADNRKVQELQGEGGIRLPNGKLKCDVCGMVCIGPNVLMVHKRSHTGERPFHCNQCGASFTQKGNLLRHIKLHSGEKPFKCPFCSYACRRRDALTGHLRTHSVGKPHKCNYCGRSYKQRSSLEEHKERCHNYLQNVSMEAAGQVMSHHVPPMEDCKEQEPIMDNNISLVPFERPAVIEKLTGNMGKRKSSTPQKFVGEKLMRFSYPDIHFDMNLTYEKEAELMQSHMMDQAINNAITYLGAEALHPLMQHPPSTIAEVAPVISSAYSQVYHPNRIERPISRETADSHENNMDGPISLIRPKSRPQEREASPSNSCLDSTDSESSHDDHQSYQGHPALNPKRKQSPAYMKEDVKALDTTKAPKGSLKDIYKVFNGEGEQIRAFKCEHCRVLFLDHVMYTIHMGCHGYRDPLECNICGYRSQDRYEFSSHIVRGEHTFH
Sequence of Helios (IKZF2) (Q96SW2 whole entry, the tested form may be a part): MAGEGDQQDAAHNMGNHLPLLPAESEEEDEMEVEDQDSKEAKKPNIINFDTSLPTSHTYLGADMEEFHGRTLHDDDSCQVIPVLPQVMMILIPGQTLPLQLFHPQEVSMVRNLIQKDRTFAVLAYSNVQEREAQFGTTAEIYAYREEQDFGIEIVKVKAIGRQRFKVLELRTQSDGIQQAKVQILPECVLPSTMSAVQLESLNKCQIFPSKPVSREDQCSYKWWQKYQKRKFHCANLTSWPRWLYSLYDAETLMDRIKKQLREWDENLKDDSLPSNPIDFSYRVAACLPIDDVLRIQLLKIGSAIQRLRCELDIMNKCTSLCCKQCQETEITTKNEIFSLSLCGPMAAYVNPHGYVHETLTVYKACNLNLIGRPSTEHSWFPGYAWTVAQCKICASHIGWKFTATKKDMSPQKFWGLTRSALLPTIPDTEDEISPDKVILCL
Sequence of Helios (IKZF2) (Q16531 whole entry partner, the tested form may be a part): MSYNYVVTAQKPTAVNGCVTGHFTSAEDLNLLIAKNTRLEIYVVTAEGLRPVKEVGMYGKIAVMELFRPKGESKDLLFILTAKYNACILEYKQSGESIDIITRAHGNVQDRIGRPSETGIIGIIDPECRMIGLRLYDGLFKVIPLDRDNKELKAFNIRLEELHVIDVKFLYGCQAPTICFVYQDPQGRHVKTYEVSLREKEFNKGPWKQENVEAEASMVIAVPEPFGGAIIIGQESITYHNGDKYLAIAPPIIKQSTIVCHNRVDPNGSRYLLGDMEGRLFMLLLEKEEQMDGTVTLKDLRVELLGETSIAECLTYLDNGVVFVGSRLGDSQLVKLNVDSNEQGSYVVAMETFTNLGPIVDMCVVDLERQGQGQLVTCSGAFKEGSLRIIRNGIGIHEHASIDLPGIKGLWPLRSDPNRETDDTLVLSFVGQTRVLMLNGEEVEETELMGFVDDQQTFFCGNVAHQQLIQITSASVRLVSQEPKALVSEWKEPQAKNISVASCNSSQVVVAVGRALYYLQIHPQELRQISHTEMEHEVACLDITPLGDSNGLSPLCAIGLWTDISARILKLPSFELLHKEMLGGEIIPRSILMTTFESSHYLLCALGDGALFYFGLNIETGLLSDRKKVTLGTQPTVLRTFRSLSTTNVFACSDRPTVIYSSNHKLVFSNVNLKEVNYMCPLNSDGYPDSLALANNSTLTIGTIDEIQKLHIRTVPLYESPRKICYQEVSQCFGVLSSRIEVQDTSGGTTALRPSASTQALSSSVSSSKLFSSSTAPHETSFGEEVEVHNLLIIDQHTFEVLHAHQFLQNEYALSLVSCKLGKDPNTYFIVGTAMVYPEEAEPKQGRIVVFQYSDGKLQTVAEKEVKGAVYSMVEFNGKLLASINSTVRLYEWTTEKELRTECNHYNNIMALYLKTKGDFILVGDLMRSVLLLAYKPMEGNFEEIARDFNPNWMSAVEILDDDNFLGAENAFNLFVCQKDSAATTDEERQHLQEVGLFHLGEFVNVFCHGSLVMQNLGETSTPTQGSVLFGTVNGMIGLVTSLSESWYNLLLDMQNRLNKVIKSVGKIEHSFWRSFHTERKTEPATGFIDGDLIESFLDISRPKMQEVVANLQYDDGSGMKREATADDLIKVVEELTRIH

Take `O=C1CCC(N2Cc3cc(C4CCN(C(=O)c5cc6cccc(F)c6[nH]5)CC4)ccc3C2=O)C(=O)N1` (centres unmarked) [Compound 19, 3-(5-(1-(7-fluoro-1H-indole-2-carbonyl)piperidin-4-yl)-1-oxoinsoindolin-2-yl)piperidine-2,6-dione]: the remaining activity at 1 µM stood at 80.5% and the remaining activity at 10 µM was 82.7%.

Consider `Cc1c(C(=O)N2CCC(c3ccc4c(c3)CN(C3CCC(=O)NC3=O)C4=O)CC2)[nH]c2ccccc12` (centres unmarked) [Compound 21, 3-(5-(1-(3-methyl-1H-indole-2-carbonyl)piperidin-4-yl)-1-oxoinsoindolin-2-yl)piperidine-2,6-dione], for which the remaining activity at 1 µM turned out to be 37% and the remaining activity at 10 µM came to 37.3%.

Take `O=C1CCC(N2Cc3cc(C4CCN(C(=O)c5[nH]c6ccccc6c5Cl)CC4)ccc3C2=O)C(=O)N1` (centres unmarked) [Compound 22, 3-(5-(1-(3-chloro-1H-indole-2-carbonyl)piperidin-4-yl)-1-oxoinsoindolin-2-yl)piperidine-2,6-dione]: the remaining activity at 1 µM amounted to 64.5% and the remaining activity at 10 µM amounted to 67%.

Turning to `O=C1CCC(N2Cc3cc(C#CCC4CCN(C(=O)c5c[nH]c6ccccc56)CC4)ccc3C2=O)C(=O)N1` (centres unmarked) [Compound 23, 3-(5-(3-(1-(1H-indole-3-carbonyl)piperidin-4-yl)prop-1-yn-1-yl)-1-oxoinsoindolin-2-yl)piperidine-2,6-dione], the remaining activity at 1 µM was 101% and the remaining activity at 10 µM was found to be 99.6%.

Consider `O=C1CCC(N2Cc3cc(C=C4CCN(C(=O)c5cc6ccccc6[nH]5)CC4)ccc3C2=O)C(=O)N1` (centres unmarked) [Compound 24, 3-(5-((1-(1H-indole-2-carbonyl)piperidin-4-ylidene)methyl)-1-oxoinsoindolin-2-yl)piperidine-2,6-dione], for which the remaining activity at 1 µM stood at 93.7% and the remaining activity at 10 µM worked out at 88.2%.

Regarding `O=C1CCC(N2Cc3cc(C=C4CCN(C(=O)c5c[nH]c6ccccc56)CC4)ccc3C2=O)C(=O)N1` (centres unmarked) [Compound 25, 3-(5-((1-(1H-indole-3-carbonyl)piperidin-4-ylidene)methyl)-1-oxoinsoindolin-2-yl)piperidine-2,6-dione], the remaining activity at 1 µM worked out at 93.6% and the remaining activity at 10 µM is 87.5%.

Turning to `O=C1CCC(N2Cc3cc(C=C4CCN(C(=O)c5cc6ccc(Cl)cc6[nH]5)CC4)ccc3C2=O)C(=O)N1` (centres unmarked) [Compound 26, 3-(5-((1-(6-chloro-1H-indole-2-carbonyl)piperidin-4-ylidene)methyl)-1-oxoinsoindolin-2-yl)piperidine-2,6-dione], the remaining activity at 1 µM was 96% and the remaining activity at 10 µM came to 97.6%.

Regarding `Cc1c(C(=O)N2CCC(=Cc3ccc4c(c3)CN(C3CCC(=O)NC3=O)C4=O)CC2)[nH]c2ccccc12` (centres unmarked) [Compound 27, 3-(5-((1-(3-methyl-1H-indole-2-carbonyl)piperidin-4-ylidene)methyl)-1-oxoinsoindolin-2-yl)piperidine-2,6-dione], the remaining activity at 1 µM amounted to 96.4% and the remaining activity at 10 µM turned out to be 91.7%.

Regarding `CCc1c(C(=O)N2CCC(c3ccc4c(c3)CN(C3CCC(=O)NC3=O)C4=O)CC2)[nH]c2ccccc12` (centres unmarked) [Compound 29, 3-(5-(1-(3-ethyl-1H-indole-2-carbonyl)piperidin-4-yl)-1-oxoinsoindolin-2-yl)piperidine-2,6-dione], the remaining activity at 1 µM amounted to 73.6% and the remaining activity at 10 µM amounted to 72.4%.

For the compound `COc1c(C(=O)N2CCC(c3ccc4c(c3)CN(C3CCC(=O)NC3=O)C4=O)CC2)[nH]c2ccccc12` (centres unmarked) [Compound 30, 3-(5-(1-(3-methoxy-1H-indole-2-carbonyl)piperidin-4-yl)-1-oxoinsoindolin-2-yl)piperidine-2,6-dione], the remaining activity at 1 µM came to 86.7% and the remaining activity at 10 µM stood at 78.7%.

For the compound `Cc1c(C(=O)N2CCC(c3ccc4c(c3)CN(C3CCC(=O)NC3=O)C4=O)CC2)[nH]c2ncccc12` (centres unmarked) [Compound 31, 3-(5-(1-(3-methyl-1H-picolo[2,3-b]pyridine-2-carbonyl)piperidin-4-yl)-1-oxoinsoindolin-2-yl)piperidine-2,6-dione], the remaining activity at 1 µM was 75% and the remaining activity at 10 µM amounted to 94.3%.

For `Nc1ccc2cc(C(=O)N3CCC(c4ccc5c(c4)CN(C4CCC(=O)NC4=O)C5=O)CC3)[nH]c2c1` (centres unmarked) [Compound 32, 3-(5-(1-(6-amino-1H-indole-2-carbonyl)piperidin-4-yl)-1-oxoinsoindolin-2-yl)piperidine-2,6-dione], the remaining activity at 1 µM worked out at 62.1% and the remaining activity at 10 µM is 57.3%.

For the compound `Cc1c(C(=O)N2CCC(c3ccc4c(c3)CN(C3CCC(=O)NC3=O)C4=O)CC2)[nH]c2ccc(Br)cc12` (centres unmarked) [Compound 33, 3-(5-(1-(5-bromo-3-methyl-1H-indole-2-carbonyl)piperidin-4-yl)-1-oxoinsoindolin-2-yl)piperidine-2,6-dione], the remaining activity at 1 µM was 71.3% and the remaining activity at 10 µM was found to be 64.4%.

Regarding `O=C1CCC(N2Cc3cc(C4CCN(C(=O)c5[nH]c6ccccc6c5CN5CCOCC5)CC4)ccc3C2=O)C(=O)N1` (centres unmarked) [Compound 34, 3-(5-(1-(3-(morpholinomethyl)-1H-indole-2-carbonyl)piperidin-4-yl)-1-oxoinsoindolin-2-yl)piperidine-2,6-dione], the remaining activity at 1 µM stood at 66.5% and the remaining activity at 10 µM was 43.5%.

Regarding `O=Cc1c(C(=O)N2CCC(c3ccc4c(c3)CN(C3CCC(=O)NC3=O)C4=O)CC2)[nH]c2ccccc12` (centres unmarked) [Compound 35, 2-(4-(2-(2,6-dioxopiperidin-3-yl)-1-oxoindolin-5-yl)piperidine-1-carbonyl)-1H-indole-3-carbaldehyde], the remaining activity at 1 µM is 76.6% and the remaining activity at 10 µM was 52.3%.

Consider `O=C1CCC(N2Cc3cc(C4CCN(C(=O)c5[nH]c6ccccc6c5Br)CC4)ccc3C2=O)C(=O)N1` (centres unmarked) [Compound 36, 3-(5-(1-(3-bromo-1H-indole-2-carbonyl)piperidin-4-yl)-1-oxoinsoindolin-2-yl)piperidine-2,6-dione], for which the remaining activity at 1 µM amounted to 50.9% and the remaining activity at 10 µM turned out to be 40.6%.

On to `O=C1CCC(N2Cc3cc(C4CCN(C(=O)c5[nH]c6ccccc6c5F)CC4)ccc3C2=O)C(=O)N1` (centres unmarked) [Compound 37, 3-(5-(1-(3-fluoro-1H-indole-2-carbonyl)piperidin-4-yl)-1-oxoinsoindolin-2-yl)piperidine-2,6-dione], for which the remaining activity at 1 µM came to 99.6% and the remaining activity at 10 µM came to 77.5%.

Consider `Cc1c(C(=O)N2CCC(c3ccc4c(c3)CN(C3CCC(=O)NC3=O)C4=O)CC2)[nH]c2ccc(Cl)cc12` (centres unmarked) [Compound 38, 3-(5-(1-(5-chloro-3-methyl-1H-indole-2-carbonyl)piperidin-4-yl)-1-oxoinsoindolin-2-yl)piperidine-2,6-dione], for which the remaining activity at 1 µM was 80% and the remaining activity at 10 µM is 65.1%.

As to `COc1cc2cc(C(=O)N3CCC(c4ccc5c(c4)CN(C4CCC(=O)NC4=O)C5=O)CC3)[nH]c2cc1OC` (centres unmarked) [Compound 40, 3-(5-(1-(5,6-dimethoxy-1H-indole-2-carbonyl)piperidin-4-yl)-1-oxoinsoindolin-2-yl)piperidine-2,6-dione], the remaining activity at 1 µM was found to be 92.2% and the remaining activity at 10 µM came out at 74.5%.
